Assay results taken from PubChem BioAssay (NCI).
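These data come from cells grown in 96-well plates and exposed to compound for 48 hours at five concentrations. Definition used: TGI = concentration required for complete inhibition of growth.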

How the values were obtained:
Assay in all cases: NCI tumour cell line growth inhibition, 48 h
DMS 273 small cell lung = tested on: DMS 273 small cell lung
HOP-62 NSCLC = tested on: HOP-62 NSCLC
M19-MEL melanoma = tested on: M19-MEL melanoma
SK-MEL-28 melanoma = tested on: SK-MEL-28 melanoma
COLO 205 colon = tested on: COLO 205 colon
HT29 colon = tested on: HT29 colon
HCT-116 colon = tested on: HCT-116 colon
MALME-3M melanoma = tested on: MALME-3M melanoma
OVCAR-4 ovarian = tested on: OVCAR-4 ovarian
U251 CNS = tested on: U251 CNS

| Structure (SMILES) | TGI (DMS 273 small cell lung) | TGI (HOP-62 NSCLC) | TGI (M19-MEL melanoma) | TGI (SK-MEL-28 melanoma) | TGI (COLO 205 colon) | TGI (HT29 colon) | TGI (HCT-116 colon) | TGI (MALME-3M melanoma) | TGI (OVCAR-4 ovarian) | TGI (U251 CNS) |
| --- | --- | --- | --- | --- | --- | --- | --- | --- | --- | --- |
| CC(=O)N1C/C(=C\c2ccccc2)C(=O)/C(=C/c2ccccc2)C1 | 12.1 µM | 39 µM | 10.7 µM | 27.5 µM | 33.9 µM | 13.8 µM | 5.9 µM | 40 µM | 33.2 µM | 29.7 µM |
| Cc1c2cnccc2c(C)c2c1c1ccccc1n2CCOC(=O)c1ccccc1 | 18 µM | 31.5 µM | 31.8 µM | 47.2 µM | 47 µM | 54.1 µM | 28.2 µM | 28.8 µM | 49.3 µM | 44.1 µM |
| CC(C)(CN1CCCCC1)C(=O)/C=C/c1ccccc1 | 36.5 µM | 61.3 µM | 52.3 µM | 33 µM | 40.9 µM | 36.4 µM | 28.6 µM | 30.3 µM | 73.9 µM | 57 µM |
| N#CC(C(=O)CCCC(=O)Nc1ccccc1[N+](=O)[O-])c1c(Cl)cccc1Cl (stereo not given) | > 100 µM | > 100 µM | > 100 µM | > 100 µM | > 100 µM | > 100 µM | > 100 µM | > 100 µM | > 100 µM | > 100 µM |
| O=C(/C=C/c1ccccc1)NC1C=Nc2ccc([N+](=O)[O-])cc2NC1=O (stereo not given) | > 100 µM | > 100 µM | > 100 µM | > 100 µM | > 100 µM | > 100 µM | > 100 µM | > 100 µM | > 100 µM | > 100 µM |
| O=C(CCc1n[nH]c(=S)o1)Nc1cc(Cl)ccc1Cl | 36.1 µM | > 100 µM | > 100 µM | > 100 µM | > 100 µM | > 100 µM | 30.8 µM | > 100 µM | > 100 µM | > 100 µM |
| CC(=O)OCC1C(=O)OCC1C(=O)N1Cc2cc3ccccc3nc2C1 (stereo not given) | 17.8 µM | 32.7 µM | 21.2 µM | 7.07 µM | 2.04 µM | 10.3 µM | 3.5 µM | 3.16 µM | 4.89 µM | 24.9 µM |
| CC1(OCc2ccccc2)C(=O)N2C1NCC2(C)C (stereo not given) | > 100 µM | > 100 µM | > 100 µM | > 100 µM | > 100 µM | > 100 µM | > 100 µM | > 100 µM | > 100 µM | > 100 µM |
| CS(=O)(=O)OCCN(CCOS(C)(=O)=O)c1ccc(C=Nc2ccc(-c3csc(COc4ccccc4)n3)cc2)cc1 | 14.5 µM | 10.1 µM | 36 µM | 25.5 µM | 6.98 µM | 23.6 µM | 27.6 µM | 28.8 µM | 49.1 µM | 25 µM |
| C/C(CN1C(=O)c2ccccc2C1=O)=N\NS(=O)(=O)c1ccc2ccccc2c1 | > 100 µM | > 100 µM | > 100 µM | > 100 µM | > 100 µM | > 100 µM | > 100 µM | > 100 µM | > 100 µM | > 100 µM |
| O=P1(NCCCl)OCCCN1CCCl (stereo not given) | 410 µM | 444 µM | 440 µM | 439 µM | 428 µM | 448 µM | 440 µM | 399 µM | 447 µM | 431 µM |
| NC(N)NCCCc1cn2c(n1)C1CCCN1C(=O)C2Cc1ccccc1 (stereo not given) | > 100 µM | > 100 µM | > 100 µM | > 100 µM | > 100 µM | > 100 µM | > 100 µM | > 100 µM | > 100 µM | > 100 µM |
| CN(C)CC1CC/C(=C\c2ccc(Cl)c(Cl)c2)C1=O (stereo not given) | > 51.9 µM | > 95.1 µM | > 51.2 µM | > 84.8 µM | > 51.8 µM | 54.4 µM | > 61.7 µM | > 100 µM | 58.2 µM | > 56.5 µM |
| O=C(CCc1nnc2s/c(=C\c3ccc([N+](=O)[O-])cc3)c(=O)n12)Nc1ccc(Cl)c(Cl)c1 | 54.4 µM | 45.7 µM | > 100 µM | 63.8 µM | 82.9 µM | 71.7 µM | > 100 µM | 98 µM | 35.1 µM | 31.2 µM |
